In patent publication US7105558B2, “Gastrin and cholecystokinin receptor lignads (iv)” (The James Black Foundation Limited, priority 2000, dated 2006):

Each compound was assayed against T1, gastrin (CCK2) receptors (Rattus norvegicus, UniProt P30553) (assay: immature rat stomach assay for gastrin (CCK2) antagonist activity (pentagastrin-stimulated acid secretion)). Settings: isolated immature rat stomach, antagonism of pentagastrin dose-response curves, 60 min incubation; tested as N-methyl D-glucamine salts.
T1 construct: The stomach was excised and flushed with ca. 1 ml of unbuffered physiological saline solution; from tissue; host or cells: isolated whole stomach of immature rats (33-50 g, ca. 21 days old)
T1 sequence (P30553 1-452): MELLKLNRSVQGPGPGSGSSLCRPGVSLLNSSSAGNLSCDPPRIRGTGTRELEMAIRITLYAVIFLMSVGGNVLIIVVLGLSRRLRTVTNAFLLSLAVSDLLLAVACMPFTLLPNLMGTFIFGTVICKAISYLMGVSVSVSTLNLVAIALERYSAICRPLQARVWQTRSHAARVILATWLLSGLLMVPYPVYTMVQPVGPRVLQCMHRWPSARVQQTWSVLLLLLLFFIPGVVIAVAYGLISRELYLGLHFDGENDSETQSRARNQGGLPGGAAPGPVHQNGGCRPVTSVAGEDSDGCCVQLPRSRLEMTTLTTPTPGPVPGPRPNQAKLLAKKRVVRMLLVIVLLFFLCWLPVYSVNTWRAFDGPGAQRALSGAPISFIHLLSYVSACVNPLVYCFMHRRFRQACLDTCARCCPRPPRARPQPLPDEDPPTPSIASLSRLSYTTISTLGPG
Protocol: The compounds of the examples were tested for gastrin (CCK2) antagonist activity in an immature rat stomach assay. The procedure was as follows:
The oesophagus of immature rats (33-50 g, ca. 21 days old) was ligated at the level of the cardiac sphincter and the duodenal sphincter was cannulated. The stomach was excised and flushed with ca. 1 ml of unbuffered physiological saline solution. The fundus was punctured and cannulated. A further 4-5 ml of unbuffered solution was flushed through the stomach to ensure the preparation was not leaking. The stomach was lowered into a jacketed organ bath containing 40 ml of buffered solution containing 3×10^−8 M 5-methylfurmethide, maintained at 37° and gassed vigorously with 95% O2/5% CO2. The stomach was continuously perfused at a rate of 1 ml min^−1 with unbuffered solution gassed with 100% O2 with the perfusate passing over an internally referenced pH-electrode fixed 12 cm above the stomach.
After 120 min of stabilisation the drugs were added directly to the serosal solution in the organ bath and after a further 60 min cumulative pentagastrin dose-response curves were started. Changes in acid secretion were monitored and the curves analysed according to Black et al, Br. J. Pharmacol., 1985, 86, 581.

Row | SMILES | Rat stomach pKB
1 | O=C(O)c1cccc(NC(=O)c2nn(C3CC4CCC3C4)nc2COC23CC4CC(CC(C4)C2)C3)c1 (stereo not drawn) [Example 11, Endo-3-[[5-(Adamantan-1-yloxymethyl)-2-bicyclo[2.2.1]hept-2-yl-2H-[1,2,3]triazole-4-carbonyl]-amino]-benzoic acid] | 8.37 ± 0.22
2 | O=C(O)c1cccc(NC(=O)c2nn(C3C4CC5CC(C4)CC3C5)nc2COC23CC4CC(CC(C4)C2)C3)c1 (stereo not drawn) [Example 16, 3-[[2-Adamantan-2-yl-5-(Adamantan-1-yloxymethyl)-2H-[1,2,3]triazole-4-carbonyl]-amino]-benzoic acid.] | 6.82 ± 0.17
3 | O=C(O)c1cccc(NC(=O)c2nn[nH]c2COC23CC4CC(CC(C4)C2)C3)c1 [Example 24, 3-[[5-(Adamantan-1-yloxymethyl)-1/2/3H-[1,2,3]triazole-4-carbonyl]-amino]-benzoic acid] | 5.65 ± 0.33

Same assay, conditions: isolated immature rat stomach, antagonism of pentagastrin dose-response curves, 60 min incubation; tested as N-methyl D-glucamine salts; read-out: Rat stomach pKB (converted)

Row | SMILES | Kb
4 | Cc1ccccc1-n1nc(COC23CC4CC(CC(C4)C2)C3)c(C(=O)Nc2cccc(C(=O)O)c2)n1 [Example 1, 3-[[5-(Adamantan-1-yloxymethyl)-2-(2-methyl-phenyl)-2H-[1,2,3]triazole-4-carbonyl]-amino]-benzoic acid] | 43.7 nM
5 | O=C(O)c1cccc(NC(=O)c2nn(C3CCCCC3)nc2COC23CC4CC(CC(C4)C2)C3)c1 [Example 2, 3-[[5-(Adamantan-1-yloxymethyl)-2-cyclohexyl-2H-[1,2,3]triazole-4-carbonyl]-amino]-benzoic acid] | 47.9 nM
6 | O=C(O)c1cccc(NC(=O)c2nn(-c3c(Cl)cccc3Cl)nc2COC23CC4CC(CC(C4)C2)C3)c1 [Example 3, 3-[[5-(Adamantan-1-yloxymethyl)-2-(2,6-dichlorophenyl)-2H-[1,2,3]triazole-4-carbonyl]-amino]-benzoic acid] | 13.2 nM
7 | O=C(O)c1cccc(NC(=O)c2nn(-c3c(Cl)cc(Cl)cc3Cl)nc2COC23CC4CC(CC(C4)C2)C3)c1 [Example 4, 3-[[5-(Adamantan-1-yloxymethyl)-2-(2,4,6-trichlorophenyl)-2H-[1,2,3]triazole-4-carbonyl]-amino]-benzoic acid] | 191 nM
8 | O=C(O)c1cccc(NC(=O)c2nn(-c3ccccc3Cl)nc2COC23CC4CC(CC(C4)C2)C3)c1 [Example 5, 3-[[5-(Adamantan-1-yloxymethyl)-2-(2-chloro-phenyl)-2H-[1,2,3]triazole-4-carbonyl]-amino]-benzoic acid] | 30.9 nM
9 | O=C(O)c1cccc(NC(=O)c2nnn(-c3ccccc3Cl)c2COC23CC4CC(CC(C4)C2)C3)c1 [Example 6, 3-[[5-(Adamantan-1-yloxymethyl)-1-(2-chloro-phenyl)-1H-[1,2,3]triazole-4-carbonyl]-amino]-benzoic acid] | 93.3 nM
10 | O=C(O)c1cccc(NC(=O)c2nn(-c3ccccc3C(F)(F)F)nc2COC23CC4CC(CC(C4)C2)C3)c1 [Example 7, 3-[[5-(Adamantan-1-yloxymethyl)-2-(2-trifluoromethyl-phenyl)-2H-[1,2,3]triazole-4-carbonyl]-amino]-benzoic acid] | 67.6 nM
11 | CCc1ccccc1-n1nc(COC23CC4CC(CC(C4)C2)C3)c(C(=O)Nc2cccc(C(=O)O)c2)n1 [Example 8, 3-[[5-(Adamantan-1-yloxymethyl)-2-(2-ethyl-phenyl)-2H-[1,2,3]triazole-4-carbonyl]-amino]-benzoic acid] | 24 nM
12 | CC(C)(C)n1nc(COC23CC4CC(CC(C4)C2)C3)c(C(=O)Nc2cccc(C(=O)O)c2)n1 [Example 9, 3-[[5-(Adamantan-1-yloxymethyl)-2-tert-butyl-2H-[1,2,3]triazole-4-carbonyl]-amino]-benzoic acid] | 631 nM
13 | COc1ccccc1-n1nc(COC23CC4CC(CC(C4)C2)C3)c(C(=O)Nc2cccc(C(=O)O)c2)n1 [Example 10, 3-[[5-(Adamantan-1-yloxymethyl)-2-(2-methoxy-phenyl)-2H-[1,2,3]triazole-4-carbonyl]amino]-benzoic acid] | 41.7 nM

The remaining lines, values ahead:

Row | Kb | SMILES
14 | 174 nM | O=C(O)c1cccc(NC(=O)c2nn(-c3ccccc3F)nc2COC23CC4CC(CC(C4)C2)C3)c1 [Example 12, 3-[[5-(Adamantan-1-yloxymethyl)-2-(2-fluoro-phenyl)-2H-[1,2,3]triazole-4-carbonyl]-amino]-benzoic acid]
15 | 95.5 nM | O=C(O)c1cccc(NC(=O)c2nn(-c3ccccc3Br)nc2COC23CC4CC(CC(C4)C2)C3)c1 [Example 13, 3-[[5-(Adamantan-1-yloxymethyl)-2-(2-bromo-phenyl)-2H-[1,2,3]triazole-4-carbonyl]-amino]-benzoic acid]
16 | 229 nM | O=C(O)c1cccc(NC(=O)c2nnn(-c3ccccc3Br)c2COC23CC4CC(CC(C4)C2)C3)c1 [Example 14, 3-[[5-(Adamantan-1-yloxymethyl)-1-(2-bromo-phenyl)-1H-[1,2,3]triazole-4-carbonyl]-amino]-benzoic acid]
17 | 13.5 nM | O=C(O)c1cccc(NC(=O)c2nn(C3CCCCCC3)nc2COC23CC4CC(CC(C4)C2)C3)c1 [Example 15, 3-[[5-(Adamantan-1-yloxymethyl)-2-cycloheptyl-2H-[1,2,3]triazole-4-carbonyl]-amino]-benzoic acid]
18 | 263 nM | CC(C)c1ccccc1-n1nc(COC23CC4CC(CC(C4)C2)C3)c(C(=O)Nc2cccc(C(=O)O)c2)n1 [Example 17, 3-[[5-(Adamantan-1-yloxymethyl)-2-(2-isopropyl-phenyl)-2H-[1,2,3]triazole-4-carbonyl]-amino]-benzoic acid]
19 | 1510 nM | O=C(O)c1cccc(NC(=O)c2nn(-c3cccc4ccccc34)nc2COC23CC4CC(CC(C4)C2)C3)c1 [Example 18, 3-[[5-(Adamantan-1-yloxymethyl)-2-naphthalen-1-yl-2H-[1,2,3]triazole-4-carbonyl]-amino]-benzoic acid]
20 | 74.1 nM | Cc1cccc(-n2nc(COC34CC5CC(CC(C5)C3)C4)c(C(=O)Nc3cccc(C(=O)O)c3)n2)c1C [Example 19, 3-[[5-(Adamantan-1-yloxymethyl)-2-(2,3-dimethyl-phenyl)-2H-[1,2,3]triazole-4-carbonyl]-amino]-benzoic acid]
21 | 2090 nM | O=C(O)c1cccc(NC(=O)c2nn(-c3ccccc3)nc2COC23CC4CC(CC(C4)C2)C3)c1 [Example 20, 3-[[5-(Adamantan-1-yloxymethyl)-2-phenyl-2H-[1,2,3]triazole-4-carbonyl]-amino]-benzoic acid]
22 | 240 nM | O=C(O)c1cccc(NC(=O)c2nn(-c3ccccc3-c3ccccc3)nc2COC23CC4CC(CC(C4)C2)C3)c1 [Example 21, 3-[[5-(Adamantan-1-yloxymethyl)-2-(biphenyl-2-yl)-2H-[1,2,3]triazole-4-carbonyl]-amino]-benzoic acid]
23 | 282 nM | Cc1ccc(C)c(-n2nc(COC34CC5CC(CC(C5)C3)C4)c(C(=O)Nc3cccc(C(=O)O)c3)n2)c1 [Example 22, 3-[[5-(Adamantan-1-yloxymethyl)-2-(2,5-dimethyl-phenyl)-2H-[1,2,3]triazole-4-carbonyl]-amino]-benzoic acid]
24 | 151 nM | O=C(O)c1cccc(NC(=O)c2nn(-c3cc(Cl)ccc3Cl)nc2COC23CC4CC(CC(C4)C2)C3)c1 [Example 23, 3-[[5-(Adamantan-1-yloxymethyl)-2-(2,5-dichloro-phenyl)-2H-[1,2,3]triazole-4-carbonyl]-amino]-benzoic acid]
